According to patent US12222310B2, “Magnesium ion selective membranes” (Siemens Healthcare Diagnostics Inc., priority 2015, dated 2025):

Assay: plasticizer lost from sensor membrane over use life, remaining plasticizer determined by UPLC
Type: physicochemical
Conditions: membranes in RAPIDPoint systems, at least 25 days, about 10 whole blood samples per business day
Method: Membrane formulations were prepared by using NPOE or ETH 217 plasticizers with polyvinylchloride, magnesium ionophore and lipohilic ion exchange salt. The materials were dissolved in a suitable organic solvent at a solids ratio of 10%. The solutions were deposited on the sensor substrates and the solvent allowed to evaporate yielding the formed membranes. The formulations were optimized to yield membranes with the best obtainable magnesium selectivity over calcium and were generally at least greater than 1:1.
Sensors were incorporated into RAPIDPoint systems (available from Siemens Healthcare Diagnostics Inc.) and tested over at least 25 days. During this time, sensors were calibrated with magnesium containing reagents and exposed to whole blood samples at approximately 10 per business day. In addition, magnesium containing quality control solutions were also run across least 25 days at least once every day. After testing the membranes were removed from the sensor substrate and the amount of remaining plasticizer was determined by UPLC and so the amount of plasticizer lost over time was calculated.

CCCCCCCCCCCCOc1ccccc1[N+](=O)[O-] [ETH 217, 1-dodecyloxy-2-nitrobenzene]
% by wt Plasticizer Lost: 3.9%
